Data taken from PMC8385535 (Frontiers in Pharmacology, 2021).

Target: T1, IGPD (imidazole glycerol phosphate dehydratase) (Staphylococcus xylosus, UniProt A0A5R9B0J7)
T1 construct: gene hisB; recombinant, pET30a-hisB, E. coli host; His tag implied (coupled to Octet NTA sensor)
T1 sequence (A0A5R9B0J7 1-192): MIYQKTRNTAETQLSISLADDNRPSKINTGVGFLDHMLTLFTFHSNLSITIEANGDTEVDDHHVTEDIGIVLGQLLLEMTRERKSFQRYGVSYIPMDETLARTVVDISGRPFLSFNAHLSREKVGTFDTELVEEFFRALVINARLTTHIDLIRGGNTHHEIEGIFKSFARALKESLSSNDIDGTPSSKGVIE
Test: bio-layer interferometry (Octet, IGPD on NTA tip)
Type: binding

C[C@@H]1O[C@@H](OC[C@H]2O[C@@H](Oc3c(-c4ccc(O)c(O)c4)oc4cc(O)cc(O)c4c3=O)[C@H](O)[C@@H](O)[C@@H]2O)[C@H](O)[C@H](O)[C@H]1O [rutin]
Kd: 1000 µM
